The source of these data is patent US8461328B2, “Tricyclic heterocyclic compounds, compositions and methods of use thereof” (Genentech, Inc., priority 2010, dated 2013).

What all share (assay type): biochemical
For one assay, the target named is T1, JAK2 (Homo sapiens, UniProt O60674).
T1 construct: made in house; host or cells: SF9 insect cells (baculovirus)
Briefly: JAK2 inhibition (Table 4). Conditions: read-out: JAK2 Ki.

Another assay concerns the target T2, JAK3 (Homo sapiens, UniProt P52333).
T2 construct: made in house; host or cells: SF9 insect cells (baculovirus)
Briefly: JAK3 inhibition (Table 4). The conditions noted are these: read-out: JAK3 Ki.

A further assay deals with T3, TYK2 (Homo sapiens, UniProt P29597).
T3 construct: made in house; host or cells: SF9 insect cells (baculovirus)
T3 sequence (P29597 873-1187): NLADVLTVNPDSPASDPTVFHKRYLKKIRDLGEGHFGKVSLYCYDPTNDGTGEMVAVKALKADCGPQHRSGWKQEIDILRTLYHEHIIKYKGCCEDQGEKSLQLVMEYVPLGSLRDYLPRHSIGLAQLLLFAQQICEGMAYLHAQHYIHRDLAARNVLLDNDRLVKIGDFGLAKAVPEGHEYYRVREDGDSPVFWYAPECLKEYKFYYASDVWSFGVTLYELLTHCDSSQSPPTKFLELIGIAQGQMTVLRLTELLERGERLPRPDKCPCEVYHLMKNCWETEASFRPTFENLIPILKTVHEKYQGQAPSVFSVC
Briefly: TYK2 inhibition (Table 4).

A further assay has as its target T4, JAK1 (Homo sapiens, UniProt P23458).
T4 construct: made in house; host or cells: SF9 insect cells (baculovirus)
Briefly: JAK1 inhibition (Table 4). The conditions noted are these: read-out: JAK1 Ki.

T1 sequence (O60674 812-1132): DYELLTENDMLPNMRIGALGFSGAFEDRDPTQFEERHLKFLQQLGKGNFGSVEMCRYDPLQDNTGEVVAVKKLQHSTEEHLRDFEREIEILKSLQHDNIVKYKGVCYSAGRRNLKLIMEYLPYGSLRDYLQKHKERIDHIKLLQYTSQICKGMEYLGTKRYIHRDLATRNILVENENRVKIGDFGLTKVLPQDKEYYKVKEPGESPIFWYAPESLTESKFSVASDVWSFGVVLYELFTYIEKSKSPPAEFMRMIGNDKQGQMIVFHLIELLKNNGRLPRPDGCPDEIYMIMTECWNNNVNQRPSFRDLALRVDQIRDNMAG
T4 sequence (P23458 852-1154): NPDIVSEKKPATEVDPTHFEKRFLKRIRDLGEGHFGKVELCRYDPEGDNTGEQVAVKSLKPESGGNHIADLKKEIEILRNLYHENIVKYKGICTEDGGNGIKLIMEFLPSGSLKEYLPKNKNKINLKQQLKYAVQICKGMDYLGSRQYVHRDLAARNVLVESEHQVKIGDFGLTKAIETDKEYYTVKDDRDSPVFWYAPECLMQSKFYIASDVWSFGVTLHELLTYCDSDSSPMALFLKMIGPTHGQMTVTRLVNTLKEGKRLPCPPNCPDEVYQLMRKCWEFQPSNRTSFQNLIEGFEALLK
T2 sequence (P52333 783-1124): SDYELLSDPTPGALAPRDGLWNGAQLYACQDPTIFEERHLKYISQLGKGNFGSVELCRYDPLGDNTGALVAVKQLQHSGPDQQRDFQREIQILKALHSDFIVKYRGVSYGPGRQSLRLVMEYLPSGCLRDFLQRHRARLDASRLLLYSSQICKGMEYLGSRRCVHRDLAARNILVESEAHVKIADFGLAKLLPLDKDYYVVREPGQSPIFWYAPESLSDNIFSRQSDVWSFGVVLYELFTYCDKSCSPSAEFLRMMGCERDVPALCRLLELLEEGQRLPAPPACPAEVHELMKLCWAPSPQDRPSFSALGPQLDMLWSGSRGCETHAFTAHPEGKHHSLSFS

`O=C(CN1CCCC1=O)N1CCC(n2cnc3cnc4[nH]ccc4c32)CC1` [Example 440, 1-{2-Oxo-2-[4-(6H-1,3,5,6-tetraaza-as-indacen-1-yl)-piperidin-1-yl]-ethyl}-pyrrolidin-2-one]: the Ki was 115 nM on JAK2, 844 nM at JAK3, 713 nM at TYK2 and 43.2 nM on JAK1.
The corresponding values for `O=C(CN1CCCCC1=O)N1CCC(n2cnc3cnc4[nH]ccc4c32)CC1` [Example 441, 1-{2-Oxo-2-[4-(6H-1,3,5,6-tetraaza-as-indacen-1-yl)-piperidin-1-yl]-ethyl}-piperidin-2-one] are 179 nM, 1530 nM, 832 nM and 55.8 nM.
The corresponding values for `CCS(=O)(=O)N1CCC(n2cnc3cnc4[nH]ccc4c32)CC1` [Example 442, 1-(1-Ethanesulfonyl-piperidin-4-yl)-1,6-dihydro-1,3,5,6-tetraaza-as-indacene] are 4.02 nM, 105 nM, 18.8 nM and 2.87 nM.
For `O=S(=O)(C1CCCC1)N1CCC(n2cnc3cnc4[nH]ccc4c32)CC1` [Example 443, 1-(1-Cyclopentanesulfonyl-piperidin-4-yl)-1,6-dihydro-1,3,5,6-tetraaza-as-indacene], in that order: 13.9 nM, 419 nM, 47.2 nM and 8.11 nM.
As to `O=C1CCCN1c1ccc(S(=O)(=O)N2CCC(n3cnc4cnc5[nH]ccc5c43)CC2)cc1` [Example 445, 1-{4-[4-(6H-1,3,5,6-Tetraaza-as-indacen-1-yl)-piperidine-1-sulfonyl]-phenyl}-pyrrolidin-2-one], the Ki is 39.2 nM on JAK2, 84 nM on JAK3, 96.9 nM at TYK2 and 11.9 nM at JAK1.
With `N#Cc1ccc(S(=O)(=O)N2CCC(n3cnc4cnc5[nH]ccc5c43)CC2)c(Cl)c1` [Example 446, 3-Chloro-4-[4-(6H-1,3,5,6-tetraaza-as-indacen-1-yl)-piperidine-1-sulfonyl]-benzonitrile], the Ki at JAK2 came out at 2.25 nM; at JAK3 it was 189 nM; at TYK2, 10.3 nM; at JAK1 it was 1.14 nM.
For `Cc1noc(C)c1S(=O)(=O)N1CCC(n2cnc3cnc4[nH]ccc4c32)CC1` [Example 447, 1-[1-(3,5-Dimethyl-isoxazole-4-sulfonyl)-piperidin-4-yl]-1,6-dihydro-1,3,5,6-tetraaza-as-indacene], in that order: 21.2 nM, 477 nM, 84.4 nM and 16.4 nM.
For `Cc1nn(C)cc1S(=O)(=O)N1CCC(n2cnc3cnc4[nH]ccc4c32)CC1` [Example 448, 1-[1-(1,3-Dimethyl-1H-pyrazole-4-sulfonyl)-piperidin-4-yl]-1,6-dihydro-1,3,5,6-tetraaza-as-indacene], in that order: 35.7 nM, 873 nM, 268 nM and 34.4 nM.
For `O=S(=O)(Cc1ccccc1)N1CCC(n2cnc3cnc4[nH]ccc4c32)CC1` [Example 449, 1-(1-Phenylmethanesulfonyl-piperidin-4-yl)-1,6-dihydro-1,3,5,6-tetraaza-as-indacene], in that order: 8.22 nM, 32.6 nM, 58.2 nM and 3.5 nM.
For the compound `CS(=O)(=O)c1ccc(S(=O)(=O)N2CCC(n3cnc4cnc5[nH]ccc5c43)CC2)cc1` [Example 450, 1-(1-(4-(methylsulfonyl)phenylsulfonyl)piperidin-4-yl)-1,6-dihydroimidazo[4,5-d]pyrrolo[2,3-b]pyridine], the inhibitory constant (Ki) at JAK2 was found to be 10.2 nM; at JAK3, 659 nM; at TYK2, 32.8 nM; on JAK1, 3.06 nM.
For `CC(C)(C#N)C(=O)N1CCC(n2cnc3cnc4[nH]ccc4c32)CC1` [Example 451, 2,2-Dimethyl-3-oxo-3-[4-(6H-1,3,5,6-tetraaza-as-indacen-1-yl)-piperidin-1-yl]-propionitrile], in that order: 36.1 nM, 428 nM, 325 nM and 36.6 nM.
For `O=C([C@@H]1COCCN1)N1CCC(n2cnc3cnc4[nH]ccc4c32)CC1` [Example 455, (S)-Morpholin-3-yl-[4-(6H-1,3,5,6-tetraaza-as-indacen-1-yl)-piperidin-1-yl]-methanone], the Ki is 78.5 nM at JAK2, 514 nM at JAK3, 262 nM at TYK2 and 18.5 nM at JAK1.
Turning to `C[C@@H](O)c1nc2cnc3[nH]ccc3c2n1[C@@H]1CCCOC1` [Example 456, (R)-1-[(R)-1-(Tetrahydro-pyran-3-yl)-1,6-dihydro-1,2,3,5,6-tetraaza-as-indacen-2-yl]-ethanol], the Ki at JAK2 amounted to 354 nM; on JAK3, 346 nM; on TYK2, 176 nM; at JAK1, 70.1 nM.
For `c1cc2c(ncc3nnn(C4CCOCC4)c32)[nH]1` [Example 467, 1-(Tetrahydro-pyran-4-yl)-1,6-dihydro-1,2,3,5,6-pentaaza-as-indacene], in that order: 77.8 nM, 429 nM, 230 nM and 32.3 nM.
For `c1cc2c(ncc3ncn(C4CCOCC4)c32)[nH]1` [Example 468, 1-(Tetrahydro-pyran-4-yl)-1,6-dihydro-1,3,5,6-tetraaza-as-indacene], in that order: 46.6 nM, 150 nM, 82.3 nM and 14.4 nM.
For `c1cncc(Cc2nc3cnc4[nH]ccc4c3n2C2CCOCC2)c1` [Example 469, 2-Pyridin-3-ylmethyl-1-(tetrahydro-pyran-4-yl)-1,6-dihydro-1,3,5,6-tetraaza-as-indacene], in that order: 1450 nM, 475 nM, 1770 nM and 215 nM.
For `O=c1ccn(Cc2nc3cnc4[nH]ccc4c3n2C2CCOCC2)c(=O)[nH]1` [Example 470, 1-[1-(Tetrahydro-pyran-4-yl)-1,6-dihydro-1,3,5,6-tetraaza-as-indacen-2-ylmethyl]-1H-pyrimidine-2,4-dione], the Ki on JAK2 is 557 nM; on JAK3, 64.8 nM; at TYK2 it was 357 nM; on JAK1, 196 nM.
For `Cc1n[nH]c(C)c1CCc1nc2cnc3[nH]ccc3c2n1C1CCOCC1` [Example 471, 2-[2-(3,5-Dimethyl-1H-pyrazol-4-yl)-ethyl]-1-(tetrahydro-pyran-4-yl)-1,6-dihydro-1,3,5,6-tetraaza-as-indacene], the Ki at JAK2 turned out to be 781 nM; on JAK3, 727 nM; on TYK2 it was 793 nM; on JAK1, 278 nM.
The corresponding values for `Cc1cc(Cc2nc3cnc4[nH]ccc4c3n2C2CCOCC2)on1` [Example 472, 2-(3-Methyl-isoxazol-5-ylmethyl)-1-(tetrahydro-pyran-4-yl)-1,6-dihydro-1,3,5,6-tetraaza-as-indacene] are 694 nM, 405 nM, 389 nM and 57.3 nM.
The corresponding values for `O=C1CN(Cc2nc3cnc4[nH]ccc4c3n2C2CCOCC2)CCN1` [Example 473, 4-[1-(Tetrahydro-pyran-4-yl)-1,6-dihydro-1,3,5,6-tetraaza-as-indacen-2-ylmethyl]-piperazin-2-one] are 1700 nM, 2010 nM, 1700 nM and 447 nM.
Take `O=C(O)[C@H]1C[C@@H](n2cnc3cnc4[nH]ccc4c32)C1` [Example 484, 3-(6H-1,3,5,6-Tetraaza-as-indacen-1-yl)-cyclobutanecarboxylic acid]: the Ki at JAK2 is 181 nM; at JAK3, 323 nM; on TYK2, 1290 nM; on JAK1, 441 nM.
`CS(=O)(=O)Cc1nc2cnc3[nH]ccc3c2n1C1CCN(CCC#N)CC1` [Example 491, 3-[4-(2-Methanesulfonylmethyl-6H-1,3,5,6-tetraaza-as-indacen-1-yl)-piperidin-1-yl]-propionitrile]: the Ki at JAK2 came to 34 nM; at JAK3, 23.6 nM; at TYK2, 95.8 nM; at JAK1, 9.7 nM.
With `CC(=O)NCc1nc2cnc3[nH]ccc3c2n1C1CCN(CCC#N)CC1` [Example 492, N-{1-[1-(2-Cyano-ethyl)-piperidin-4-yl]-1,6-dihydro-1,3,5,6-tetraaza-as-indacen-2-ylmethyl}-acetamide], the Ki on JAK2 stood at 86.5 nM; on JAK3, 200 nM; on TYK2 it was 210 nM; at JAK1, 16 nM.
As for `CCOC(=O)NCc1nc2cnc3[nH]ccc3c2n1C1CCN(CCC#N)CC1` [Example 493, {1-[1-(2-Cyano-ethyl)-piperidin-4-yl]-1,6-dihydro-1,3,5,6-tetraaza-as-indacen-2-ylmethyl}-carbamic acid ethyl ester], the inhibitory constant (Ki) on JAK2 was 36.2 nM; at JAK3, 80.2 nM; on TYK2 it was 121 nM; at JAK1, 11.3 nM.
